Experimental findings from patent publication US20200085767A1, “Methods for Treating Hydrocephalus” (Indian University Research and Technology Corporation, priority 2016, published 2020) are described below.

Entries after “also recorded” stand apart in the source; their conditions may differ.

In this test the test system is PCP-R choroid plexus cell line. The test can be described thus: Ussing chamber electrophysiology of TRPV4 agonist-stimulated transepithelial ion transport (short-circuit current and conductance). It counts as cell-based, porcine. An excerpt: In order to follow transepithelial ion movement, Ussing chamber electrophysiological techniques were used. The choroid plexus model is a high resistance, continuous cell line of porcine choroid plexus epithelial cells grown on permeable supports. […] The cells were mounted on electrophysiological apparatuses for analysis of transepithelial ion flux in response to inhibitory or stimulatory reagents. Filters were excised, mounted in a Ussing chamber, and connected to a DVC-1000 Voltage/Current Clamp with voltage and current electrodes on either side of the membrane. Each half of the chamber contained a tapered fluid compartment with fittings for voltage electrodes (close to the epithelial membrane) and current electrodes (at the opposite end of the chamber). The fluid chamber was water jacketed to maintain a constant temperature (37° C.). The cells were bathed in serum-free media. Media were circulated in the chambers and oxygenated by means of a 5% CO2/O2 gas lift. The spontaneous transepithelial potential difference was measured and clamped to zero, and the resultant short-circuit (SCC) was monitored continuously as a measurement of net transepithelial ion flux. As per convention, a negative deflection in the SCC was either cation secretion (from blood to CSF) or anion absorption (CSF to blood). Transepithelial resistance (TER) was recorded every 200 seconds throughout each experiment by applying a 2 mV pulse and using the resulting deflection in the SCC to calculate the TER by Ohm's law. Conductances were calculated from the change in current during the voltages pulses. Specifically conductance is the change in current divided by the magnitude of the imposed voltage. In all cases, the graphs shown in each panel represent a series of control and experimental cultures that were grown and analyzed in parallel.
After the basal current was stabilized, effectors were added to one or both sides of polarized monolayer as dictated by the physiological situation.
Further, conductance is a measurement of the permeability of the tissue to water and electrolytes. So, as the conductance goes up, one would expect greater ion and fluid permeability across the choroid plexus which is a barrier epithelium.
The same methods were used in this Example as in Example 1.

Regarding `CC(C)C[C@H](NC(=O)c1cc2ccccc2s1)C(=O)N1CCN(C(=O)[C@H](CO)NS(=O)(=O)c2ccc(Cl)cc2Cl)CC1` [GSK1016790A], the change in conductance entry (agonist alone) was “large increase in the conductance”. Also, the “transepithelial ion transport response measured as short-circuit current (SCC)” value (agonist alone, added at time 0 minutes) is recorded as “consistent with cation secretion into the CSF”.
For the molecule `NCCC(Oc1ccc(C(F)(F)F)cc1)c1ccccc1` (stereo not shown) [norfluoxetine], the “GSK1016790A-stimulated transepithelial potassium secretion in the direction of the CSF (short-circuit current, SCC)” value (cells pre-treated from time -10 to 0 minutes, GSK1016790A added at 0 minutes) is reported as “effective at inhibiting the TRPV4-stimulated ion transport; also recorded: completely inhibited”. Besides, where the note is “pre-treatment before the TRPV4 agonist GSK1016790A”, the “TRPV4 agonist-induced increase in conductance (permeability)” value is reported as “blocked this increased permeability”.
